Data reported in article PMC12656546, “Enterohepatic Recirculation-Mediated Reabsorption of Aristolochic Acid I: Revealed by Toxicokinetics and Metabolite Identification in Rats” (Toxics, 2025).
Several values for one entry are separate records, joined by “and”; a condition that tells them apart may be missing. Equal entries are not always repeated. Where two headings read alike, the source gives them in different places.

Test: Toxicokinetic study of AAI after single oral administration (plasma, UPLC-QQQ-MS/MS, NCA)
Format: in vivo, F344 rats
Conditions: for tmax: read-out: tmax
Protocol: For toxicokinetic study, forty-eight […] F344 rats (specific pathogen-free grade) were enrolled in the study, with equal numbers of males and females. All rats were purchased from Charles River Laboratory (Raleigh, NC, USA). All rats were confirmed to be healthy based on a series of physical health examinations. Rats were acclimated for 5 days at a temperature of 20–26 °C, humidity of 40–70% and a 12 h light/dark circle. The rats were randomly divided into four groups (n = 12 per group), with equal numbers of males and females in each group. The allocation was performed separately for each sex (female and male) based on body weight using a stratified randomization method. During the experiment, rats were fasted and had access to water ad libitum. To minimize confounding factors, treatments and measurements were randomized within each session. Cages from different groups were evenly distributed across racks in the same room to reduce bias from light and temperature. This study was approved by the Institutional Animal Care and Use Committee (IACUC) of the National Drug Safety Evaluation Center (Approval No. IACUC-2024-K011, 20 September 2024).
During the experiment, each rat received a single oral administration via gastric gavage. Rats in the control group were administered with 0.5% sodium carboxymethyl cellulose (CMC-Na) suspension. For the treatment groups, rats were administered with gavage solution containing 10, 30 and 100 mg/kg of AAI. The gavage solution was prepared by uniformly dispersing the reference standard of AAI in the 0.5% CMC-Na solution. After oral administration, blood samples were collected from the postorbital vein plex of rats and immediately placed in EDTA tubes. To capture potential reabsorption which might occur long after AAI administration, 15 blood sampling time points were established for each dose group. A sparse sampling approach was employed to avoid excessive blood loss in each rat. For each dosage, 12 rats were subdivided into two groups. For the first group, blood samples were collected from 6 rats at 10, 30, 60, 90, 120, 240, 420, and 600 min after AAI administration; for the second group, blood samples were collected from these 6 rats at 12, 14, 16, 18, 20, 22, and 24 h after AAI administration. Therefore, the experimental design ensured that six biological replicates were obtained for each sampling time point, enabling robust toxicokinetic analysis.
Rat plasma samples were prepared as follows: Blood was centrifuged at 13,200 rpm for 10 min. Then, 25 μL of retrieved plasma was transferred to 2 mL centrifuge tubes, followed by the addition of 75 μL of methanol/acetonitrile solution (v/v, 1∶1) containing indomethacin as internal standard (IS). After vortexing for 2 min and centrifugation for 10 min at 13,200 rpm, the supernatant was used as study samples for quantitative analysis. Quality control samples (QCs) and calibration standards were prepared by spiking blank plasma with different concentrations of AAI standard solution. The QCs and calibration standards were processed using identical procedures as the study samples.
A method of ultra-performance liquid chromatography coupled with triple quadrupole tandem mass spectrometry (UPLC-QQQ-MS/MS) was developed to achieve the quantitation of AAI in rat plasma. The LC-MS/MS analysis was performed using an Acquity UPLC I-Class system coupled with an Xevo TQ XS spectrometer (Waters, Milford, MA, USA). An Acquity UPLC BEH C18 column (2.1 mm × 50 mm, 1.7 μm, Waters, Milford, MA, USA) was employed for chromatographic separation. The mobile phases consisted of water containing 5 mmol/L ammonium formate/0.1% formic acid (A) and acetonitrile (B). The gradient elution was set as follows: 1–4 min, 10–90% B; 4–5 min, 90% B; 5–5.01 min, 90–10% B; 5.01–7 min, 10% B. The flow rate was set at 0.4 mL/min. The column temperature was maintained at 40 °C. A sample volume of 2 μL was injected for analysis. […]

[1] = 10 mg/kg single oral, rat plasma, mean ± SD
[2] = 30 mg/kg single oral, rat plasma, mean ± SD
[3] = 100 mg/kg single oral, rat plasma, mean ± SD
[4] = both sexes, F344, rat, plasma, po, 10 mg/kg, 10 mg/kg single oral, rat plasma, mean ± SD
[5] = both sexes, F344, rat, plasma, po, 30 mg/kg, 30 mg/kg single oral, rat plasma, mean ± SD
[6] = both sexes, F344, rat, plasma, po, 30 mg/kg, medium-dose (30 mg/kg), individual pooled profiles (animal pairs), Table S4
[7] = both sexes, F344, rat, plasma, po, 100 mg/kg, 100 mg/kg single oral, rat plasma, mean ± SD
[8] = high-dose (100 mg/kg), individual pooled profiles (animal pairs), Table S4, 100 mg/kg

Work on `COc1cccc2c1cc([N+](=O)[O-])c1c(C(=O)O)cc3c(c12)OCO3` [AAI, Aristolochic acid I] yielded a CL/F [1] of 1.66 ± 0.37 L/h, a Vd [1] of 3.36 ± 1.97 L and a CL/F [2] of 1.22 ± 0.30 L/h. The Vd [2] was 4.67 ± 0.81 L, the CL/F [3] was 1.13 ± 0.59 L/h and the Vd [3] was 8.42 ± 7.24 L. For the same compound, the AUC(0-t) (F344, rat, plasma, po, 10 mg/kg, low-dose (10 mg/kg), individual pooled profiles (animal pairs), Table S4) was 843 ng·h/mL, the Cmax (F344, rat, plasma, po, 10 mg/kg, low-dose (10 mg/kg), individual pooled profiles (animal pairs), Table S4, read-out: Cmax) was 562 ng/mL and the AUC(0-t) [4] was 969 ± 140 ng·h/mL. It also gave a half-life [4] of 1.31 ± 0.51 h, a Cmax (both sexes, F344, rat, plasma, po, 10 mg/kg, 10 mg/kg single oral, rat plasma, mean ± SD, read-out: Cmax) of 457 ± 129 ng/mL and a tmax [4] of 0.69 ± 0.6 h. The concentration at 14 h (both sexes, F344, rat, plasma, po, 10 mg/kg, low-dose (10 mg/kg oral), 14 h, individual rats M104,M105,M106,F104,F105,F106, below LLOQ set to zero) was 0 ng/mL, the concentration at 16 h (both sexes, F344, rat, plasma, po, 10 mg/kg, low-dose (10 mg/kg oral), 16 h, individual rats M104,M105,M106,F104,F105,F106, below LLOQ set to zero) was 0 ng/mL and the concentration at 18 h (both sexes, F344, rat, plasma, po, 10 mg/kg, low-dose (10 mg/kg oral), 18 h, individual rats M104,M105,M106,F104,F105,F106, below LLOQ set to zero) was 0 ng/mL. The concentration at 20 h (both sexes, F344, rat, plasma, po, 10 mg/kg, low-dose (10 mg/kg oral), 20 h, individual rats M104,M105,M106,F104,F105,F106, below LLOQ set to zero) was 0 ng/mL, the concentration at 22 h (both sexes, F344, rat, plasma, po, 10 mg/kg, low-dose (10 mg/kg oral), 22 h, individual rats M104,M105,M106,F104,F105,F106, below LLOQ set to zero) was 0 ng/mL and the concentration at 24 h (both sexes, F344, rat, plasma, po, 10 mg/kg, low-dose (10 mg/kg oral), 24 h, individual rats M104,M105,M106,F104,F105,F106, below LLOQ set to zero) was 0 ng/mL. It also gave an AUC(0-t) (both sexes, F344, rat, plasma, po, 10 mg/kg, low-dose (10 mg/kg), individual pooled profiles (animal pairs), Table S4) of 825 ng·h/mL, an AUC(0-t) [5] of 3950 ± 543 ng·h/mL and a half-life [5] of 2.79 ± 0.74 h. It also gave a Cmax (both sexes, F344, rat, plasma, po, 30 mg/kg, 30 mg/kg single oral, rat plasma, mean ± SD, read-out: Cmax) of 2450 ± 561 ng/mL, a tmax [5] of 0.58 ± 0.17 h and a concentration at 1.5 h (both sexes, F344, rat, plasma, po, 30 mg/kg, medium-dose (30 mg/kg oral), 1.5 h, individual rats M201,M202,M203,F201,F202,F203) of 413 ng/mL. It also gave an AUC(0-t) [6] of 3450 ng·h/mL, a tmax [6] of 0.5 h and an AUC(0-t) [7] of 17100 ng·h/mL. For the same compound, the half-life [7] was 3.01 ± 0.45 h, the Cmax (both sexes, F344, rat, plasma, po, 100 mg/kg, 100 mg/kg single oral, rat plasma, mean ± SD, read-out: Cmax) was 9110 ± 2180 ng/mL and the tmax [7] was 1.17 ± 0.37 h. For the same compound, the Cmax (both sexes, F344, rat, plasma, po, 100 mg/kg, high-dose (100 mg/kg), individual pooled profiles (animal pairs), Table S4, read-out: Cmax) was 9010 ng/mL, the tmax (both sexes, F344, rat, plasma, po, 100 mg/kg, high-dose (100 mg/kg), individual pooled profiles (animal pairs), Table S4) was 2 h and the “secondary elevation of plasma AAI concentration, time post-administration” value (high- and medium-dose groups (100, 30 mg/kg oral)) was 14 to 24 h. The AUC0→t [8] was 17484.11 ng·h/mL and 17260.39 ng·h/mL and 32135.80 ng·h/mL and 9262.46 ng·h/mL and 9698.81 ng·h/mL and 16821.21 ng·h/mL, the CL/F [8] was 0.76 L/h and 0.74 L/h and 0.40 L/h and 2.04 L/h and 1.79 L/h and 1.07 L/h and the Cmax [8] was 9980.23 ng/mL and 12351.60 ng/mL and 6490.96 ng/mL and 6245.89 ng/mL and 10563.14 ng/mL. The Vd [8] was 23.01 L and 3.33 L and 1.48 L and 11.28 L and 7.23 L and 4.20 L and the t1/2 [8] was 20.86 h and 3.11 h and 2.58 h and 3.83 h and 2.80 h and 2.72 h.
